# Results from ChEMBL document CHEMBL1157539, “Thousands of chemical starting points for antimalarial lead identification” (Nature, 2010).
# Test system: Plasmodium falciparum
# Assay: GSK_TCMDC: Inhibition of Plasmodium falciparum 3D7 in whole erythrocytes, using parasite LDH activity as an index of growth.
# Assay type: functional, organism-based
# Details: Plasmodium falciparum, 3D7
row,SMILES,XC50
1,CCN(CC)CCN(Cc1ccc(-c2ccc(C(F)(F)F)cc2)cc1)C(=O)Cn1c(CCc2cccc(F)c2F)nc(=O)c2ccc(C(F)(F)F)cc21,783 nM
2,CCNC(C)(C)CN(Cc1ccc(-c2ccc(C(F)(F)F)cc2)cc1)C(=O)Cn1c(CCc2cccc(F)c2F)nc(=O)c2ccccc21,813 nM
3,COc1c(C2CCN(CCCCNC(=O)c3cc(-c4ccc(C#N)cc4)n[nH]3)CC2)ccc2c1CCCC2,1160 nM
4,CCC(C)c1ccc(O)c(NC(=O)c2cncc(Br)c2)c1 (stereo not drawn),804 nM
5,CCOc1ccc(N(CC)S(=O)(=O)c2cc(Br)cc3c2N(C(=O)C2CC2)CC3)cc1,134 nM
6,Cc1cc(-c2ccc(CNCc3ccsc3)cc2)ccc1S(=O)(=O)NCCN1CCCC1,725 nM
7,O=C(Nc1ccc(F)cc1)NC1CCN(c2ccnc3cc(Cl)ccc23)C1 (stereo not drawn),218 nM
8,CN(C)CCN(C)Cc1nc(-c2ccc3c(Nc4ccc(Oc5ccccc5)cc4)ccnc3c2)cs1,212 nM
9,CCN(CCCN1CCCCC1)c1cc(C)nc(Nc2ccc3c(c2)CCC3)n1,394 nM
10,CCCN(CC1CC1)c1nc(C)nc2c(-c3ccccc3)cc(C)cc12,1020 nM
11,CCN(CC)S(=O)(=O)c1ccc(C=CC(=O)Nc2cc(Cl)ccc2N2CCOCC2)cc1,920 nM
12,CN1CCN(CCNc2c3ccccc3nc3c2ccc2ccccc23)CC1,606 nM
13,CC(C)NCc1ccc(-c2cccc(-c3nc4cc(F)ccc4[nH]3)c2)cc1,405 nM
14,CC(C)c1nc2c(N)nc(N)nc2nc1N,1310 nM
15,O=C(Nc1ccc(Cl)c(Cl)c1)Nc1ccc2nccc(N3CCN(Cc4ccccc4)CC3)c2c1,158 nM
16,CCOC(=O)c1nc(-c2ccc(Cl)cc2)[nH]c1NC(=S)NCCCN1CCOCC1,868 nM
17,Cc1ccc2c(-c3ccc([N+](=O)[O-])o3)cc(C)nc2c1,43.7 nM
18,Cc1cc(-c2cccc3c(C(=O)N4CCc5cc6nccc(N7CCN8CCC[C@H]8C7)c6cc54)cccc23)cc(C)n1,709 nM
19,COc1ccc2nc(C)cc(Nc3ccc(Cl)c(Cl)c3)c2c1,441 nM
20,CC(C)CCN1CCCN(Cc2cccc(NC(=O)c3ccc(Cl)c(Cl)c3)c2)CC1,1020 nM
21,O=[N+]([O-])c1ccc2c(-c3ccccc3)c(-c3ccccc3)n(O)c2c1,989 nM
22,Oc1ccc2[nH]c(-c3ccc(F)cc3F)nc2c1CN1CCC(O)(c2ccccc2)CC1,839 nM
23,CCc1cccc(NC(=O)c2ccc(CN3CCCN(CC4CCCCC4)CC3)cc2)c1,402 nM
24,O=C(Nc1ccc(-c2cccc(-c3nc4cc(F)ccc4[nH]3)c2)cc1)Nc1ccsc1,693 nM
25,O=C(Cc1ccc(NC(=O)c2ccc(O)c(-c3cccc([N+](=O)[O-])c3)c2)cc1)NCCN1CCCCC1,895 nM

row,SMILES,XC50
1,COc1cc(CCON2C(N)=NC(N)=NC2(C)C)cc(OC)c1OC,49.3 nM
2,Cc1ccc2nc(N/C(N)=N/C(=O)NC3CCCCC3)nc(C)c2c1,624 nM
3,CN(C)CCC=C1c2ccccc2Sc2c(O)cc(Cl)cc21,277 nM
4,Cc1cc(C(F)(F)F)n2nc(C(=O)N(Cc3cncn3Cc3ccccc3F)CC3CC3)cc2n1,956 nM
5,CC(=O)c1c(Cc2cccc(C(F)(F)F)c2)c[nH]c1C,346 nM
6,COc1ccccc1Nc1nc(C)cc(NCc2ccc(-n3ccnc3)cc2)n1,1050 nM
7,Cc1ccc(Nc2nc(-c3ccccn3)cs2)nc1,752 nM
8,CN(CCS(C)(=O)=O)Cc1ccc(-c2ccc3ncnc(Nc4ccc(OCc5cccc(F)c5)c(Cl)c4)c3c2)o1,681 nM
9,CCN(c1ccccc1)S(=O)(=O)c1ccc(NC(=O)c2cc(-c3cc(C)ccc3O)n[nH]2)cc1,767 nM
10,CC(C)(C)c1ccc2oc(=O)n(C3CCN(C(=O)c4ccc([N+](=O)[O-])o4)CC3)c2c1,816 nM
11,FC(F)(F)c1ccc2[nH]c(-c3ccc(-c4ccc(CNCc5ccccc5)cc4)cc3)nc2c1,143 nM
12,O=C(CCc1cccnc1)Nc1ccc(-c2cccc(-c3nc4cc(F)ccc4[nH]3)c2)cc1,922 nM
13,Cc1[nH]c(-c2ccc(F)cc2)cc1C(=O)NC1CCN(Cc2ccccc2)CC1,1130 nM
14,CCCn1c(Sc2ccc(C#N)c([N+](=O)[O-])c2)nnc1-c1cc(OC)cc(OC)c1,718 nM
15,COc1cc2nc(N3CCC(C(N)=O)CC3)nc(NCc3ccccc3)c2cc1OC,887 nM
16,COc1cc2nc(Nc3ccc(C)cc3)nc(Nc3ccc(C)cc3)c2cc1OC,139 nM
17,NS(=O)(=O)c1cccc(Nc2nccc(-c3cnn4ncccc34)n2)c1,661 nM
18,CC(=O)Nc1nc(C(=O)Nc2ccc(-c3ccc(-c4nc5cccc(C)c5[nH]4)cc3)cc2)cs1,182 nM
19,O=C(/C=C/c1ccc(I)cc1)NCCCCCN1CCC(c2c[nH]c3ccc(O)cc23)CC1,773 nM
20,N=C(N)NN=Cc1c2ccc(Cl)cc2c(Cl)c2ccc(Cl)cc12,958 nM
21,O=C(Nc1ccc(Cl)c(Cl)c1)N1CCc2ccc(OCCCN3CCCCC3)cc2CC1,1520 nM
22,Cc1[nH]c(C)c(-c2ccc(-c3ccc(C(F)F)cc3)nc2)c(=O)c1Cl,241 nM
23,CC(C)(C)Nc1cc(C(=O)N[C@@H](Cc2ccccc2)[C@H](O)CNC2CCOCC2)cc(N2CCCCS2(=O)=O)c1,150 nM
24,CC(C)c1ccc(NC(=O)N[C@H]2CCN(CCCCCNC(=O)/C=C/c3ccc(Cl)c(Cl)c3)C2)cc1,710 nM
25,CC(C)c1ccc(CN2CCC(NC(=O)c3ccc(-c4cccc(Cl)c4)s3)CC2)cc1,1430 nM

row,SMILES,XC50
1,CC(C)c1cn2c3c(cc(C(=O)N[C@@H](Cc4ccccc4)[C@H](O)CNC4CCOCC4)cc13)N(C)S(=O)(=O)CC2,54.5 nM
2,CCC(=O)Nc1cc(=O)[nH]c2nc(-c3ccc(Cl)cc3)nn12,570 nM
3,O=C(Nc1ccc(Oc2ccc(OC(F)(F)F)cc2)cc1)c1ccco1,1130 nM
4,COc1cccc(C(=O)Nc2nc3c(s2)CCN(Cc2ccccc2N2CCNCC2)CC3)c1,888 nM
5,O=C(Nc1ccc2nccc(N3CCN4CCC[C@H]4C3)c2c1)c1ccc(Cl)c(Cl)c1,340 nM
6,Cn1nc(-c2ccc(CNC3CCc4ccccc43)cc2)c2cnc(NCCCN3CCCC3)nc21 (stereo not drawn),1110 nM
7,COc1ccc(C(=O)N2CCC3(CC2)C(=O)N(CC(=O)NCC2CCCCC2)CN3c2ccccc2)cc1,273 nM
8,COc1cc(F)c2ncc(Cl)c(CCN3CCC(NCc4ccc5c(c4)NC(=O)CO5)CC3)c2c1,227 nM
9,CN1CCN(Cc2cccc(-c3ccc4c(Nc5cc(O)c(Cl)cc5F)ccnc4c3)c2)CC1,770 nM
10,O=C(Nc1ccc(-c2nc3ccccc3[nH]2)cc1)C1CCCN(CC2CC2)C1 (stereo not drawn),946 nM
11,CCC(C)c1ccc(NC(=O)C(C)c2ccc([N+](=O)[O-])cc2)cc1 (stereo not drawn),176 nM
12,CC(C)N1CCN(c2ccc(OCCCCN3CCN(c4cccc(Cl)c4Cl)CC3)cc2Cl)CC1,1040 nM
13,NC1CCN(Cc2ccc(-c3ccc(-c4nc5cc(F)ccc5[nH]4)cc3)cc2)C1 (stereo not drawn),184 nM
14,O=S(=O)(NCCN1CCCC1)c1ccc(-c2cccc(CNCCc3cccs3)c2)s1,705 nM
15,CCCC(CNCc1cccc(OCC)c1)CNc1cc(=O)c2ccccc2[nH]1 (stereo not drawn),855 nM
16,O=C(/C=C/c1ccc(Cl)c(Cl)c1)NCCCCCN1CCC(NC(=O)Nc2cc(Cl)cc(Cl)c2)CC1,722 nM
17,Nc1nccc2ccc(-c3cccc4ncccc34)cc12,52.4 nM
18,Cc1cc(OCCCN2CCC(NS(=O)(=O)c3ccc(Cl)c(Cl)c3)C2)c2ccccc2n1 (stereo not drawn),1050 nM
19,CC(C)(C)CC(C)(C)c1ccc(O)c(C(=O)Nc2cccc([N+](=O)[O-])c2)c1,589 nM
20,c1ccc2c(c1)ncn2-c1ccnc(Nc2ccncc2)n1,646 nM
21,COc1ccc(OC(C)CNC(=O)c2cc([N+](=O)[O-])ccc2-c2ccc(OC)cc2)cc1 (stereo not drawn),1150 nM
22,O=C(NCCCN1CCCCC1)c1cccc(Nc2nccc(Nc3ccc(Oc4ccccc4)cc3)n2)c1,821 nM
23,CC(C)c1ccc(NC(=O)c2cccc(CN3CCCN(CC4CCCCC4)CC3)c2)cc1,710 nM
24,CC(C)C[C@H](NC(=O)c1ccc(OCCN2CCOCC2)cc1)C(=O)N[C@H](/C=N/NC(=O)OC(C)(C)C)CCc1ccccc1,162 nM
25,CCc1cc(OC)ccc1C1CCN(CCCCNC(=O)c2ccc(NC(=O)c3ccc(Cl)cc3)cc2)CC1,1070 nM

row,SMILES,XC50
1,Cc1ccc(OC2CCN(c3ccc(C(=O)NC4CC4)cn3)CC2)cc1,1300 nM
2,CCOC(=O)c1[nH]c2cc(Cl)cc(Cl)c2c1/C=C/C(=O)Nc1ccc(-c2cnc(NC(C)=O)[nH]2)cc1,1020 nM
3,CCCCc1ccc(C(=O)Nc2ccc3nc(N4CCN(C)CC4)cc(C)c3c2)cc1,1100 nM
4,CCNc1cc(C(=O)N[C@@H](Cc2ccccc2)[C@H](O)CNCC(C)C)cc(N2CCCC2=O)c1,485 nM
5,Oc1c(C(Nc2ccccn2)c2ccco2)cc(Cl)c2cccnc12 (stereo not drawn),1010 nM
6,CN(C)CCC(O)C=C(c1ccc(Cl)cc1)c1ccc(Cl)cc1 (stereo not drawn),948 nM
7,CCC[C@@H]([C@@H](CC1CCCCC1)C(=O)N[C@H](C(=O)Nc1nccs1)C(C)(C)SCCNC(=O)OCC)N(O)C=O,83.4 nM
8,Cc1cc(=NN=Cc2ccc(F)cc2)c2ccc(F)cc2[nH]1,950 nM
9,Nc1nccc2ccc(OC3CCCCC3)cc12,602 nM
10,CCCc1cc(OC)c(CC2c3cccc(O)c3CCN2C)cc1OC (stereo not drawn),305 nM
11,Cc1cc(N[C@@H](CC(C)C)C(=O)Nc2ccccc2)nc(NCCc2ccccc2)n1,888 nM
12,Cc1ccc2nc(C)n(C3CCN(C(=O)Cc4ccccc4C)CC3)c2c1,243 nM
13,Cc1ccc2nc(C)cc(NC(=O)Nc3ccc(N(C)C)cc3)c2c1,541 nM
14,COc1ccc(Nc2ncc(C#N)c(Nc3ccccc3C(N)=O)n2)cc1N1CCN(C)CC1,136 nM
15,CN(CCN)Cc1ccc(-c2ccc(-c3nc4cc(C(F)(F)F)ccc4[nH]3)s2)cc1,607 nM
16,COc1ccccc1CNC(=O)c1nn(-c2ccc(Cl)cc2)c(=O)c2ccccc12,294 nM
17,CNCCCN(C)C(=O)Oc1c(Br)c(C)nc(C)c1-c1ccc(Oc2ccc(OC(F)(F)F)cc2)cc1,386 nM
18,CO/C(=C\C=C\c1cc2cc(Cl)c(Cl)cc2[nH]1)C(=O)NC1CCN(CCCc2ccccc2)CC1,767 nM
19,Clc1cccc(C=NN=c2cc[nH]c3ccccc23)c1,852 nM
20,COc1ccc(CN2CCC(NCc3cccc(-n4ccnc4)c3)CC2)cc1,629 nM
21,CC[C@H]1CN2CC[C@H]1C[C@H]2[C@@H](O)c1cc(OCCCN(C)C)nc2ccc(OC)cc12,132 nM
22,CN(C)CCNC(=O)c1ccc(-c2ccc3c(Nc4ccccc4)c(C(N)=O)cnc3c2)cc1,728 nM
23,COc1ccc(-c2ccc(NC(=O)c3cccc(Cl)c3)cc2)cc1CN1CCCN(C)CC1,603 nM
